Data taken from patent US20050233377A1, “Drug screening method for the treatment of brain damage” (priority 2004, published 2005).

Experiments:
[1] = assay type: physicochemical
Text: Both compounds were therefore dissolved in DMSO for the NMR titration experiments.

PDZ2 of PSD-95 = molecular target: T1, PDZ2 of PSD-95 (Rattus norvegicus, UniProt P31016); experiment: NMR chemical shift perturbation assay (1H-15N HSQC) of binding to 15N-labeled PDZ2; settings: for structural perturbation of PDZ2 (chemical shift of amide groups of Ser 173 and Ala 231 normalized to maximal shift with crude extract = 100%): 10-fold excess of compound relative to PDZ2
T1 construct: His tag (N); made in house; host or cells: Escherichia coli BL21 (DE3), pET14b
Procedure: In this specific non-limiting example, the PDZ-domain of recombinant PSD-95 was uniformly labeled with ^15N using the recombinant protein production method described. The ^15N-labeled PSD-95 was expressed in and purified from E. coli bacterial cells. The NMR spectra was acquired at 30° C. on Varian Inova 500 or 750 spectrometers each equipped with a 5 mm z-shielded gradient triple resonance probes. Lyophilized ^15N-labeled PDZ2 protein dissolved in 100 mM potassium phosphate buffer at pH 6.0, with a pure recombinant protein concentration of ˜0.1-0.2 mM (typically 0.5 ml in 100 mM phosphate buffer) for spectral analysis.
Since the identity of every resonances of the ^1H-^15N HSQC spectrum of PSD-95 PDZ domains is known, and the three dimensional structures of the PSD-95 PDZ domains could be elucidated, the quantitative values of compound-induced chemical shift changes for each amino acid residues of PSD-95 PDZ2 were computed using the equation: Δppm=[(ΔδHN)^2+(ΔδN·αN)^2]^1/2
The scaling factor αN used to normalize ^1H and ^15N chemical shifts was 0.17. ΔδHN corresponded to the change of the ^15N-bonded hydrogen chemical shift of a specific resonance, while ΔδN corresponded to the change of the ^15N chemical shift of that resonance.
In this method, the PDZ domain of PSD-95 is expressed recombinantly as described in Example 1 and uniformly labeled with ^15N using a recombinant protein production method. […]
Using preparation techniques mentioned above, a ^1H,^15N HSQC spectrum was recorded for each mixture of bound PDZ2 protein, and compared with the ^1H,^15N HSQC spectrum of free PSD-95 PDZ2 (˜0.1 mM in the same buffer). […]
The observation of chemical shift changes (with respect to the free PDZ2) as a result of mixing the protein with the herbal mixtures or pure compounds was scored as positive binding of compound(s) to PDS-95 PDZ2. […]
The binding affinity of the compounds to PDZ2 of PSD-95 was quantified by normalizing the chemical shift of the amide groups of Ser 173 and Ala 231 in relation to the maximal shift of these groups upon incubation with the crude extract (100%). […]

T1 sequence (P31016 156-249): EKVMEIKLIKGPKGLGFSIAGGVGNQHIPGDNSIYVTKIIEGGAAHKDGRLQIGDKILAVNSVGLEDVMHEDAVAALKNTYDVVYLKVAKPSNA

Question: With `COc1c(O[C@@H]2O[C@H](C(=O)O)[C@@H](O)[C@H](O)[C@H]2O)cc(O)c2c(=O)cc(-c3ccccc3)oc12` [wogonoside] as the molecule, how does the “solubility in H2O” value [1] read?
Answer: very poor solubility

Question: For `O=C(O)[C@H]1O[C@@H](Oc2cc3oc(-c4ccccc4)cc(=O)c3c(O)c2O)[C@H](O)[C@@H](O)[C@@H]1O` [baicalin], which “structural perturbation of PDZ2 (chemical shift of amide groups of Ser 173 and Ala 231 normalized to maximal shift with crude extract = 100%)” value (PDZ2 of PSD-95) is on record?
Answer: around 60%

Question: What about the “chemical shift changes of PSD-95 PDZ2 HSQC spectrum relative to free PDZ2 (scored as positive binding)” value (PDZ2 of PSD-95; 15N-labeled PDZ2 0.1-0.2 mM, 100 mM phosphate buffer pH 6.0) of the same molecule?
Answer: significant chemical shift changes

Question: And the “solubility in H2O” value [1]?
Answer: very poor solubility

Question: With `O=C(O)[C@H]1O[C@@H](Oc2cc(O)c3c(=O)cc(-c4ccccc4)oc3c2O)[C@H](O)[C@@H](O)[C@@H]1O` [norwogonoside] as the molecule, how does the “structural perturbation of PDZ2 (chemical shift of amide groups of Ser 173 and Ala 231 normalized to maximal shift with crude extract = 100%)” value (PDZ2 of PSD-95) read?
Answer: around 60%
